{"source": "patent US7666898B2", "about": "“Multivalent indole compounds and use thereof as phospholipase-A2 inhibitors” (Ilypsa, Inc., priority 2005, dated 2010)", "key": {"[1]": {"biological_target": "T1, mouse group 1B PLA2 (mps PLA2) (Mus musculus, UniProt Q9Z0Y2)", "T1 construct": "made in house; host or cells: E. coli", "T1 sequence (Q9Z0Y2 23-146)": "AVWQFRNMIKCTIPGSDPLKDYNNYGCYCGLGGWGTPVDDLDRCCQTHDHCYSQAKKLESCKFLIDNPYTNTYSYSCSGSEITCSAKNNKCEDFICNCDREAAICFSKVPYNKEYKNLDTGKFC", "test": "Fluorimetric PLA2 inhibition assay, mouse (Example 8)", "type": "biochemical", "excerpt": "(§1) In this example, a fluorimetric assay procedure was used to evaluate the indole and indole-related compounds of the invention as inhibitors of group 1B phospholipase A2 (PLA2) from human, mouse and porcine.\n(§2) In general, this assay used a phosphatidylmethanol substrate with a pyrene fluorophore on the terminal end of the sn-2 fatty acyl chain. Without being bound by theory, close proximity of the pyrenes from neighboring phospholipids in a phospholipid vesicle caused the spectral properties to change relative to that of monomeric pyrene. Bovine serum albumin was present in the aqueous phase and captured the pyrene fatty acid when it is liberated from the glycerol backbone owing to the PLA2-catalyzed reaction. […] The effect of a given inhibitor and inhibitor concentration on human, mouse and porcine phospholipase was determined.\n(§3) Recombinant human and mouse group 1B PLA2 were cloned and expressed in E. coli as insoluble inclusion bodies. The inclusion bodies were isolated and purified by sonicating cell pellet in lysis buffer (50 mM Tris-HCl pH 7.0, 250 mM NaCl, 0.5% Triton 100), centrifugation at 12,000×g, and washing three times in washing buffer (20 mM Tris-HCl pH 7.0, 250 mM NaCl, 0.5% Triton 100). Then the inclusion bodies were dissolved in dissolving buffer (50 mM Tris-HCl pH 7.0, 250 mM NaCl, 6 M Guanidine-HCl, 1 mM DTT) and dialyzed four times against 10 volumes of refolding buffer (20 mM Tris-HCl pH 7.0, 250 mM NaCl, 0.5M Guanidine-HCl, 5% (w/w) Glycerol, 2 mM reduced glutathione and 0.4 mM oxidized glutathione) at 4° C. The correctly refolded proteins were concentrated using Amicon Stirred cell under nitrogen pressure (<70 psi) and dialyzed against 10 volumes of 50 mM Tris-HCl pH 7.0, 250 mM NaCl and 5% (w/w) glycerol. Human and mouse group 1B PLA2 were further purified by High S ion exchange and gel filtration columns.\n(§4) The following reagents were prepared: • 1. PPyrPM stock solution (1 mg/ml) in toluene:isopropanol (1:1) • 2. […]\n(§5) The following procedure was performed to evaluate the inhibitory potency of the evaluated compounds. • 1. […]"}, "[2]": {"biological_target": "Porcine group 1 B phospholipase A2 (pps PLA2) (Sus scrofa, UniProt P00592)", "sequence (P00592 23-146)": "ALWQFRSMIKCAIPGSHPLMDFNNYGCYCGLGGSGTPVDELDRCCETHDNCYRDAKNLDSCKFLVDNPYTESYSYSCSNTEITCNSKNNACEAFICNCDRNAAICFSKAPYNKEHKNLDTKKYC", "test": "Fluorimetric PLA2 inhibition assay, porcine (Example 8)", "excerpt": "as §1, §2\nThe following reagents and equipments were obtained from commercial vendors: • 1. Porcine group 1 B phospholipase A2 • 2. 1-hexadecanoyl-2-(1-pyrenedecanoyl)-sn-glycero-3-phosphomethanol (PPyrPM) • 3. Bovine serum albumin (BSA, fatty acid free) • 4. 2-Amino-2-(hydroxymethyl)-1,3-propanediol, hydrochloride (Tris-HCl) • 5. […]\nas §5\nEvaluated compounds were tested in duplicate and their values were averaged to plot the inhibition curve and calculate the IC50. […]"}, "[3]": {"biological_target": "T2, human group 1B PLA2 (hps PLA2) (Homo sapiens, UniProt P04054)", "T2 construct": "made in house; host or cells: E. coli", "T2 sequence (P04054 23-148)": "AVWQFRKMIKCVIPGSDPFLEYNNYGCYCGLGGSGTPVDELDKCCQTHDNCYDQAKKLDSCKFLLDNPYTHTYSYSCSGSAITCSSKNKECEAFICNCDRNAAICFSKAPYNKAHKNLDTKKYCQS", "test": "Fluorimetric PLA2 inhibition assay, human (Example 8)", "type": "biochemical", "excerpt": "as §1, §2, §3, §4, §5"}, "[4]": {"test": "Bioavailability study of Compound 5-24 (Example 9)", "type": "in vivo, male CD-1 Mus Musculus mice", "conditions": "oral ˜30 mg/kg vs IV ˜3 mg/kg, mice", "method": "Bioavailability was determined for Compound 5-24 (ILY-V-24) as follows. Generally, the bioavailability was calculated by comparing a timecourse of the concentration of the test compound in the serum of mice after an intra-venous (IV) dosing, versus the timecourse of the concertration following an oral dosing of the test compound. The IV dose was ˜3 mg/kg, the oral dose was ˜30 mg/kg.\nOral Formulation. The oral formulation was prepared as follows. To sterile flask, 90 ml of sterile Milli-Q water was added. 9 ml of PEG-400 was added (final concentration of 9%). 50 ul of Tween-80 was added (final concentration of 0.05%). 0.9 g of CMC was weighed and added (final concentration of 0.9% w/v). […]\nStudy Design. […] On study day 0, all the animals were weighed, dosages were calculated and the animals were dosed by oral route (PO) or (IV) as outlined below in Table 7. […]\nCalculations. Bioavailabilty was calculated as follows. Individual doses were calculated based on an average of body weights taken on the day of dosing. Serum concentrations of test compound, as well as the actual concentration of dosing solutions, were measured using 2-dimensional Mass Spectrophotometry after Liquid Chromatography (LC MS/MS). […]"}, "[5]": {"test_system": "Caco-2 cells", "description": "(§6) Briefly, the human colon adenocarcinoma cell line, Caco-2, was used to model intestinal drug absorption.\n(§7) In order to determine the compound permeability, Caco-2 cells (ATCC) were seeded into 24-well transwells (Costar) at a density of 6×10^4 cells/cm^2. Monolayers were grown and differentiated in MEM (Mediatech) supplemented with 20% FBS, 100 U/ml penicillin, and 100 ug/ml streptomycin at 37° C., 95% humidity, 95% air, and 5% CO2. The culture medium was refreshed every 48 hours. After 21 days, the cells were washed in transport buffer made up of HBSS with HEPES and the monolayer integrity was evaluated by measuring the trans-epithelial electrical resistance (TEER) of each well. […]\n(§8) 150 ul samples were collected for LC/MS analysis from the basolateral well at 15 min, 30 min, 45 min, 1 hr, 3 hr, and 6 hr time points; replacing the volume with pre-warmed transport buffer after each sampling. The apparent permeabilities in cm/s were calculated based on the equation: Papp=(dQ/dt)×(1/C0)×(1/A) where dQ/dt is the permeability rate corrected for the sampling volumes over time, C0 is the initial concentration, and A is the surface area of the monolayer (0.32 cm^2). At the end of the experiment, TEER measurements were retaken and wells with readings below 350 ohm-cm^2 indicated diminished monolayer integrity such that the data from these wells were not valid for analysis."}, "[6]": {"biological_target": "mouse PLA2 IB enzyme (Mus musculus, UniProt Q9Z0Y2)", "sequence (Q9Z0Y2 23-146)": "as the sequence (Q9Z0Y2 23-146) above", "conditions": "pyrene substrate release from vesicles (Singer, Ghomashchi et al. 2002); read-out: IC50 versus the mouse PLA2 IB enzyme; cited from earlier work"}, "[7]": {"biological_target": "human PLA2 IB enzyme (Homo sapiens, UniProt P04054)", "sequence (P04054 23-148)": "as the sequence (P04054 23-148) above", "conditions": "pyrene substrate release from vesicles (Singer, Ghomashchi et al. 2002); read-out: IC50 versus the human PLA2 IB enzyme; cited from earlier work"}, "[8]": {"test": "Pharmokinetic study of ILY-4001 (Example 6C)", "type": "in vivo, mice", "conditions": "30 mg/kg oral", "method": "Bioavailability was calculated as a ratio of AUC-oral/AUC-intravenous (IV). To determine this ratio, a first set of subject animals were given a measured intravenous (IV) dose of ILY-4001, followed by a determination of ILY-4001 levels in the blood at various time points after administration (e.g., 5 minutes through 24 hours). Another second set of animals was similarly dosed using oral administration, with blood levels of ILY-4001 determined at various time points after administration (e.g., 30 minutes through 24 hours). The level of ILY-4001 in systemic circulation were determined by generally accepted methods (for example as described in Evans, G., A Handbook of Bioanalysis and Drug Metabolism. Boca Raton, CRC Press (2004)). Specifically, […]/mass spectrometry/mass spectrometry (LC/MS/MS) analytical methods were used to quantitate plasma concentrations of ILY-4001 after oral and intravenous administration. Pharmacokinetic parameters that were measured include Cmax, AUC, tmax, t1/2, and F (bioavailability).\nIn this procedure, ILY-4001 was dosed at 3 mg/kg IV and 30 mg/kg oral. […] This indicated about a 72% level of non-absorption of ILY-4001 from the GI tract into systemic circulation."}, "[9]": {"test": "Stability at low pH", "type": "physicochemical"}, "[10]": {"test_system": "Caco-2 cells", "test": "In-vitro Caco-2 permeability study (Example 6B)", "conditions": "Caco-2 monolayers, apical to basolateral", "description": "as §6, §7, §8"}, "[11]": {"test_system": "C57BL/6 wild-type mice on high fat/high sucrose diabetogenic diet", "test": "In-vivo evaluation in mice on high fat/high sucrose diabetogenic diet (Example 5)", "design": "species or system mouse", "conditions": "for fasting glucose levels: low dose 25 mg/kg/day", "method": "ILY-4001 (FIG. 2) was evaluated as a PLA2 IB inhibitor in a set of experiments using wild-type mice and genetically deficient PLA2 (−/−) mice (also referred to herein as PLA2 knock-out (KO) mice). In these experiments, wild-type and PLA2 (−/−) mice were maintained on a high fat/high sucrose diet, details of which are described below.\nBriefly, four groups were set up, each having six mice. Three of the groups included six wild-type PLA2 (+/+) mice in each group (eighteen mice total), and one of the groups included six genetically deficient PLA2 (−/−) mice. One of the wild-type groups was used as a wild-type control group, and was not treated with ILY-4001. The other two wild-type groups were treated with ILY-4001—one group at a lower dose (indicated as “L” in Table 1) of 25 mg/kg/day, and the other at a higher dose (indicated as “H” in Table 1) of 90 mg/kg/day. The group comprising the PLA2 (−/−) mice was used as a positive control group.\nThe experimental protocol used in this study was as follows. The four groups of mice, including wild type and isogenic PLA2 (−/−) C57BL/J mice were acclimated for three days on a low fat/low carbohydrate diet. After the three day acclimation phase, the animals were fasted overnight and serum samples taken to establish baseline plasma cholesterol, triglyceride, and glucose levels, along with baseline body weight. The mice in each of the treatment groups were then fed a high fat/high sucrose diabetogenic diet (Research Diets D12331). 1000 g of the high fat/high sucrose D12331 diet was composed of casein (228 g), DL-methionine (2 g), maltodextrin 10 (170 g), sucrose (175 g), soybean oil (25 g), hydrogenated coconut oil (333.5 g), mineral mix S10001 (40 g), sodium bicarbonate (10.5 g), potassium citrate (4 g), vitamin mix V10001 (10 g), and choline bitartrate (2 g). This diet was supplemented with ILY-4001 treatments such that the average daily dose of the compound ingested by a 25 g mouse was: 0 mg/kg/day (wild-type control group and PLA2 (−/−) control group); 25 mg/kg/day (low-dose wild-type treatment group), or 90 mg/kg/day (high-dose wild-type treatment group). The animals were maintained on the high fat/high sucrose diet, with the designated ILY-4001 supplementation, for a period of ten weeks.\nBody weight measurements were taken for all animals in all treatment and control groups at the beginning of the treatment period and at 4 weeks and 10 weeks after initiation of the study. (See Example 5A). Blood draws were also taken at the beginning of the treatment period (baseline) and at 4 weeks and 10 weeks after initiation of the study, in order to determine fasting glucose (See Example 5B). Cholesterol and triglyceride levels were determined from blood draws taken at the beginning of the treatment (baseline) and at ten weeks. (See Example 5C)."}, "[12]": {"conditions": "low and high doses (25 and 90 mg/kg/day), 10 weeks"}}, "note": "Like-named read-outs stand apart in the source and are kept apart here.", "data": [{"compound": "(3-Aminooxalyl-1-benzyl-2-methyl-1H-indol-4-yloxy)-phenyl-acetic acid [ILY-IV-32]", "values": [{"measurement": "ILYPSA % inhibition at 15 μM mps PLA2", "setting": "[1]; 15 μM compound", "result": 47.49, "unit": "%"}, {"measurement": "ILYPSA % inhibition at 15 μM pps PLA2", "setting": "[2]; 15 μM compound", "result": 38.5, "unit": "%"}, {"measurement": "ILYPSA % inhibition at 15 μM hps PLA2", "setting": "[3]; 15 μM compound", "result": 41.73, "unit": "%"}]}, {"compound": "2-(3-Aminooxalyl-1-{12-[3-aminooxalyl-4-(1-carboxy-2-methyl-propoxy)-2-methyl-indol-1-yl]-dodecyl}-2-methyl-1H-indol-4-yloxy)-3-methyl-butyric acid [ILY-v-44]", "values": [{"measurement": "IC50", "setting": "[1]; PPyrPM vesicles, 37° C., read-out: ILYPSA IC50 (μM) mps PLA2", "result": 0.48, "unit": "µM"}, {"measurement": "IC50", "setting": "[2]; read-out: ILYPSA IC50 (μM) pps PLA2, PPyrPM vesicles, 37° C.", "result": 0.05, "unit": "µM"}, {"measurement": "IC50", "setting": "[3]; PPyrPM vesicles, 37° C., read-out: ILYPSA IC50 (μM) hps PLA2", "result": 0.28, "unit": "µM"}]}, {"compound": "Cc1c(C(=O)C(N)=O)c2c(OCC(=O)O)cccc2n1CCCCCCCCSCCCCCCCCSCCCCCCCCn1c(C)c(C(=O)C(N)=O)c2c(OCC(=O)O)cccc21", "note": "[ILY-v-24, 2,2′-(1,1′-(8,8′-(Octane-1,8-diylbis(sulfanediyl))bis(octane-8,1-diyl))bis(3-(2-amino-2-oxoacetyl)-2-methyl-1H-indole-4,1-diyl))bis(oxy)diacetic acid]", "values": [{"measurement": "bioavailability", "setting": "[4]", "result": "4-8%"}]}, {"compound": "Lucifer Yellow", "values": [{"measurement": "apparent permeability (cm/s)", "setting": "[5]", "result": "around 2.82×10^−7+/−0.37×10^−7 cm/s"}]}, {"compound": "Cc1c(C(=O)C(N)=O)c2c(OCC(=O)O)cccc2n1Cc1ccccc1-c1ccccc1", "note": "[ILY-4001, 2-(3-(2-amino-2-oxoacetyl)-1-(biphenyl-2-ylmethyl)-2-methyl-1H-indol-4-yloxy)acetic acid]", "values": [{"measurement": "IC50", "setting": "[6]", "result": "~150", "unit": "nM"}, {"measurement": "IC50", "setting": "[7]", "result": "~200", "unit": "nM"}, {"measurement": "level of non-absorption from the GI tract into systemic circulation", "setting": "[8]", "result": "~72", "unit": "%"}, {"measurement": "stability at low pH", "setting": "[9]", "result": "stable at low pH"}, {"measurement": "apparent permeability (cm/s)", "setting": "[10]", "result": "around 1.66×10^−7 cm/s"}, {"measurement": "body weight gain", "setting": "[11]; 25 mg/kg/d and 90 mg/kg/d in diet, week 4 and week 10, vs wild-type control group", "result": "significantly reduced body weight gains"}, {"measurement": "plasma levels of cholesterol", "setting": "[11]; [12]", "result": "substantially reduced"}, {"measurement": "plasma levels of triglycerides", "setting": "[11]; [12]", "result": "substantially reduced"}, {"measurement": "fasting glucose levels", "setting": "[11]; week four", "result": "moderately beneficial effect"}, {"measurement": "fasting glucose levels", "setting": "[11]; week ten", "result": "a beneficial effect was not observed"}]}]}
